The record followed here is paper PMC5045383 (Oncotarget, 2016).

By GI50 is commonly meant the concentration that inhibits growth by half.

Each structure is given as a SMILES string. Some results are limits rather than exact numbers.

For experiment [1], the system named is MOLM-13 (FLT3-ITD/wt). As to the kind of experiment: Cell proliferation assay (CellTiter-Glo). It counts as cell-based, human. How it is done: (§1) The human AML cell lines MV4-11, U937, OCI-AML-3 were purchased from the American Type Culture Collection (ATCC) (Manassas, VA, USA). The FLT3-ITD-expressing lines, MOLM-13, MOLM-14, were provided by Dr. Scott Armstrong, Dana Farber Cancer Institute (DFCI), Boston, MA. The wt FLT3-expressing AML line, NB4 (KRAS A18D), was obtained from Dr. Gary Gilliland. […] MV4-11 was cultured in IDMEM media (Corning, USA) with 10% FBS and supplemented with 2% L-glutamine and 1% penicillin/streptomycin. OCI-AML-3 was cultured in α-MEM media (Corning, USA) with 10% FBS and supplemented with 2% L-glutamine and 1% penicillin/streptomycin. All cell lines were maintained in culture media at 37°C with 5% CO2.
(§2) Cells were grown in 96-well culture plates (3000/well). […] Cell proliferation was determined after 72 hours drug treatment. […] Cell viability was measured with the CellTiter–Glo assay (Promega, USA), according to the manufacturer's instructions, and luminescence was measured in a multi-label reader (Envision, PerkinElmer, USA). […] GI50 values were calculated using Prism 5.0 (GraphPad Software, San Diego, CA).
Background: ATP-based viability assays read luminescence as a measure of living cells.

Experiment [2] concerns MOLM-14 (FLT3-ITD/wt). The experiment can be described thus: Cell proliferation assay (CellTiter-Glo). The experiment is classed as cell-based, human. How it is done:
as §1, §2

Experiment [3] deals with MV4-11 (FLT3-ITD). The experiment can be described thus: Cell proliferation assay (CellTiter-Glo). It counts as cell-based, human. How it is done:
as §1, §2

The subject of experiment [4] is NB4 (FLT3-wt). The experiment can be described thus: Cell proliferation assay (CellTiter-Glo). It counts as cell-based, human. The settings on record: 72 hours. How it is done: as §1, §2
The subject of experiment [5] is OCI-AML-3 (FLT3-wt). As to the kind of experiment: Cell proliferation assay (CellTiter-Glo). It counts as cell-based, human. The settings on record: 72 hours. As to the method:
as §1, §2

Experiment [6] relates to U937 (FLT3-wt). As to the kind of experiment: Cell proliferation assay (CellTiter-Glo). It counts as cell-based, human. As to the method: as §1, §2
Experiment [7] has as its system HL-60 (FLT3-wt). The experiment can be described thus: Cell proliferation assay (CellTiter-Glo). The experiment is classed as cell-based, human. To be noted: 72 hours. As to the method: as §2
In experiment [8] the test system is SKM-1 (FLT3-wt). The experiment can be described thus: Cell proliferation assay (CellTiter-Glo). The experiment is classed as cell-based, human. To be noted: 72 hours. As to the method: as §2
Experiment [9] relates to PF-382 (FLT3-wt). As to the kind of experiment: cells. The experiment is classed as cell-based. To be noted: 72 hours. As to the method: as §2
Experiment [10] relates to MOLM14. The experiment can be described thus: Cell cycle analysis (PI, flow cytometry). It counts as cell-based, human. To be noted: MOLM14, 1 μM, 24 hours. As to the method:
(§3) The cells were fixed in 70% cold ethanol and incubated at −20°C overnight, then stained with PI/RNase staining buffer (BD Pharmingen). Flow cytometry was performed using a FACS Calibur (BD), and results were analyzed by ModFit software.
(In flow cytometry, cells or beads pass a laser one at a time.)

The test system of experiment [11] is MV4-11. As to the kind of experiment: Cell cycle analysis (PI, flow cytometry). The experiment is classed as cell-based, human. To be noted: MV4-11, 1 μM, 24 hours. How it is done:
as §3

Experiment [12] concerns MOLM-13. The experiment can be described thus: Combination study TCS359 + MK2206. It counts as cell-based, human. To be noted: TCS359 0.12 μM, MK2206 0.36 μM, alone or combined, 72 hours. As to the method: (§4) The FLT3-ITD-expressing lines MOLM-13, MOLM14 and MV4-11 were grown in 96-well culture plates (3000/well), respectively. Combination treatment with the FLT3 kinase inhibitor, TCS359, and with the Akt inhibitor, MK2206, was performed. Cell proliferation was determined after treatment with compounds for 72 hours. Cell viability was measured using the CellTiter–Glo assay (Promega, USA), data were normalized to control groups (DMSO) and represented by the mean of three independent measurements with standard error < 20%. CI index was calculated by Calcusyn software (Biosoft, version 2.1), using the Chou-Talalay method.

Experiment [13] deals with MOLM-14. The experiment can be described thus: Combination study TCS359 + MK2206. The experiment is classed as cell-based, human. The settings on record: TCS359 3.3 μM, MK2206 0.12 μM, alone or combined, 72 hours. How it is done: as §4
Experiment [14] has as its system MV4-11. As to the kind of experiment: Combination study TCS359 + MK2206. The settings on record: TCS359 0.12 μM, MK2206 0.12 μM, alone or combined, 72 hours. It counts as cell-based, human. As to the method:
as §4

Experiment [15] relates to MOLM14, MV4-11 cells. As to the kind of experiment: Apoptosis effect examination (PARP, Caspase-3 immunoblot). The experiment is classed as cell-based, human. The settings on record: at 1 μM, 24 hours. The text has this:
Cells were then washed in PBS and lysed in cell lysis buffer. PARP, Caspase-3, GAPDH antibodies (Cell signaling Technology) were used for immunoblotting.
Background: Immunoblotting shows a protein as a band on a membrane.

The subject of experiment [16] is FLT3-ITD mediated signaling in MOLM14 and MV4-11 cell lines. As to the kind of experiment: Signaling pathway effect examination (immunoblot). It counts as cell-based, human. The settings on record: 1 μM, 4 hours. The text has this: Cells were then washed in PBS and lysed in cell lysis buffer. FLT3, Phospho-FLT3 (Tyr589/591), AKT, Phospho-AKT Ser473, Phospho-AKT Thr308, GSK-3β, Phospho-GSK-3β (Ser9), Phospho-FoxO1 (Thr24), FoxO1, PRAS40, Phospho-PRAS40 (Thr246), STAT5, Phospho-STAT5 (Tyr694), NF-ΚB-P65, Phospho-NF-ΚB-P65 (Ser536), P70S6K, Phospho-P70S6K Thr389, 4EBP1, Phospho-4EBP1 (Thr37/46), ERK, Phospho-p44/42MAPK (Erk1/2) (Thr202/Tyr204), C-Myc and GAPDH antibodies (Cell Signaling Technology) were used for immunoblotting.

Experiment [17] has as its system FLT3-ITD/FLT3 wt-expressing MOLM13 and MOLM14 cells. How it is done:
as §2

Where [18] appears, read: Homo sapiens, MOLM-13 (FLT3-ITD/wt), 72 hours, Table 1.
Where [19] appears, read: Homo sapiens, MOLM-14 (FLT3-ITD/wt), 72 hours, Table 1.
[20] abbreviates: Homo sapiens, MV4-11 (FLT3-ITD), 72 hours, Table 1.
Setting [21] is: Homo sapiens, read-out: Relative activity(%).
[22] abbreviates: MOLM-13 (FLT3-ITD/wt), 72 hours, Table 1.
Where [23] appears, read: MV4-11 (FLT3-ITD), 72 hours, Table 1.

As for `CCn1c(-c2nonc2N)nc2c(C#CC(C)(C)O)ncc(OC[C@H]3CCCNC3)c21` [GSK690693], the GI50 is 0.28 µM in experiment [1] (setting [18]); 0.54 µM in experiment [2] (setting [19]); 5.2 µM in experiment [3] (setting [20]); 0.22 µM in experiment [4] (Homo sapiens); more than 10 µM in [5] (Homo sapiens); 5.1 µM in experiment [6] (Homo sapiens, U-937, 72 hours). In addition, the GI50 in experiment [7] (Homo sapiens) is 0.16 µM; in [8] (Homo sapiens) it was more than 10 µM; in experiment [9] (Homo sapiens), 0.24 µM. Besides, the figures for the “%G0–G1” value in experiment [10] and in experiment [11] were 54.52% and 60.48%, respectively. Also, the “%G2–M” value in [10] was 9.78%; in experiment [11] it was 7%. In addition, the “%S” value in [10] was determined as 35.7%; in experiment [11] it was 32.52%.
As to `NC1(c2ccc(-c3nc4ccn5c(=O)[nH]nc5c4cc3-c3ccccc3)cc2)CCC1` [MK2206], the 50% growth inhibitory concentration (GI50) in experiment [1] (setting [18]) came out at 0.1 µM; in experiment [2] (setting [19]) it was 0.32 µM; in [3] (setting [20]), 5.2 µM; in experiment [4] (Homo sapiens) it was 0.21 µM; in [5] (Homo sapiens) it was 1.4 µM; in experiment [6] (Homo sapiens, U-937, 72 hours), 7.2 µM. The 50% growth inhibitory concentration (GI50) in [7] (Homo sapiens) amounted to 0.16 µM; in [8] (Homo sapiens) it was 4.6 µM; in experiment [9] (Homo sapiens), 0.61 µM. Also, the activity at 0.36 µM in experiment [12] (setting [21]) is 59.3%. For the same compound, the activity at 0.12 µM came to 65.5% in [13] (setting [21]) and 88.6% in [14] (setting [21]). Further, the “%G0–G1” value came out at 63.9% in experiment [10] and 64.92% in [11]. Besides, the “%G2–M” value in experiment [10] is recorded as 7.3%; in experiment [11], 7.69%. The figures for the “%S” value in experiment [10] and in [11] were 28.81% and 27.39%, respectively. Besides, in experiment [15], the apoptosis induction entry is recorded as “did not induce apoptosis”. For the same compound, the “effect on FLT3 signaling pathway (pFLT3, pSTAT5, c-MYC)” value in experiment [16] is listed as “did not affect this signaling pathway”.
As to `COc1ccc(C(=O)Nc2sc3c(c2C(N)=O)CCCC3)cc1OC` [TCS359], the concentration for 50% growth inhibition (GI50) in experiment [1] (setting [22]) is 0.56 µM; in [1] (MOLM-13+FL(1 ng/mL)) it was more than 10 µM; in experiment [1] (MOLM-13+FL(5 ng/mL)) it was more than 10 µM; in [1] (MOLM-13+FL(10 ng/mL)), more than 10 µM; in [1] (MOLM-13, no FLT3 ligand, Table 3), 0.42 µM; in [2] (MOLM-14+FL(1 ng/mL)) it was more than 10 µM. Besides, the GI50 in [2] (MOLM-14+FL(5 ng/mL)) is more than 10 µM; in experiment [2] (MOLM-14+FL(10 ng/mL)), more than 10 µM; in experiment [3] (setting [23]), 0.68 µM; in experiment [3] (MV4-11+FL(10 ng/mL)), 1.4 µM; in experiment [3] (MV4-11, no FLT3 ligand, Table 3), 0.49 µM; in experiment [4], more than 10 µM. The GI50 is more than 10 µM in experiment [5]; more than 10 µM in experiment [6] (72 hours); 0.54 µM in experiment [7]; more than 10 µM in [8]; more than 10 µM in [9]. For the same compound, the “Relative activity(%)” value in experiment [12] stood at 69.7%; in [13] it was 68.4%; in experiment [14] it was 98.9%. For the same compound, the results for the “%G0–G1” value in experiment [10] and in experiment [11] were 55.04% and 73.62%, respectively. The “%G2–M” value in [10] was 9.08%; in experiment [11], 2.57%. Besides, the results for the “%S” value in experiment [10] and in [11] were 35.88% and 23.81%, respectively. Further, the apoptosis induction entry in experiment [15] is given as “did not induce apoptosis”. Besides, in [17], the “fold loss of activity with FLT3 ligand stimulation” value was 6-15 fold.
For the compound `CC(C)NC[C@@H](C(=O)N1CCN(c2ncnc3c2[C@H](C)C[C@H]3O)CC1)c1ccc(Cl)cc1` [GDC0068], the 50% growth inhibitory concentration (GI50) stood at 0.29 µM in experiment [1] (setting [18]); 0.85 µM in [2] (setting [19]); 2.1 µM in [3] (setting [20]); 5.9 µM in experiment [4] (Homo sapiens); 1.1 µM in [5] (Homo sapiens); 0.59 µM in [6] (Homo sapiens, U-937, 72 hours). The concentration for 50% growth inhibition (GI50) in experiment [7] (Homo sapiens) was 0.31 µM; in experiment [8] (Homo sapiens) it was more than 10 µM; in experiment [9] (Homo sapiens) it was 0.44 µM.
Take `NC1(C(=O)N[C@@H](CCO)c2ccc(Cl)cc2)CCN(c2ncnc3[nH]ccc23)CC1` [AZD5363]: the GI50 was 0.16 µM in [1] (setting [18]); 0.5 µM in [2] (setting [19]); 0.67 µM in experiment [3] (setting [20]); 0.93 µM in experiment [4] (Homo sapiens); 1.2 µM in experiment [5] (Homo sapiens); 0.61 µM in experiment [6] (Homo sapiens, U-937, 72 hours). Further, the figures for the GI50 in experiment [7] (Homo sapiens), in experiment [8] (Homo sapiens) and in experiment [9] (Homo sapiens) were 0.37 µM, more than 10 µM and 0.48 µM, respectively.
In the case of `NC1(Cc2ccc(Cl)cc2)CCN(c2ncnc3[nH]ccc23)CC1` [CCT128930], the GI50 was found to be 0.65 µM in experiment [1] (setting [22]); 1.1 µM in [2] (MOLM-14 (FLT3-ITD/wt), 72 hours, Table 1); 1 µM in experiment [3] (setting [23]); 2.5 µM in [4]; 2.2 µM in [5]; 4.1 µM in [6] (72 hours). The GI50 came out at 1.5 µM in [7], 4.3 µM in [8] and 1.3 µM in experiment [9].
